Columns and labels:
[1] = test system: Spodoptera eridania, 3rd instar larvae, southern armyworm; assay: Southern armyworm 7-day residual test; assay type: in vivo; parameters: key: 0: no effect; 10-25% kill; 26-35% kill; 36-45% kill; 46-55% kill; 56-65% kill; 66-75% kill; 76-85% kill; 86-99% kill; 9: 100% kill; conditions: R designates Residual: 7-day residual foliage, concentration not given
Summary of the method: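 Third-instar southern armyworm larvae were exposed to lima bean foliage that had been treated, then held 7 days under greenhouse lamps simulating bright sun for 14 h per day. Treatment solutions were diluted in water from a 10,000 ppm stock in 35% acetone. Results are scale ratings.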

Pythium ultimum = assay: In vitro fungicidal activity, mycelial growth inhibition on agar (Pyth); assay type: cell-based; conditions: Globisporangium ultimum, 48 h, two days
Method: (§1) Test compounds are dissolved in acetone, diluted with sterile, deionized water and mixed with a partially cooled, autoclaved, chemically defined agar medium. This mixture is poured into several 100mm x 15mm sterile plastic plates and allowed to solidify. The surface of each plate is inoculated with a single disc of mycelium and agar cut with an 8mm diameter cork borer from actively growing cultures of assay fungi on a chemically defined agar medium. The plates are incubated at room temperature. Growth inhibition is determined when the mycelial growth on unamended control media has reached the edge of the petri plates. The time interval varies depending on the growth rate of the fungus; two days for Pythium ultimum (pyth) and Rhizoctonia solani (Rhiz) , five days for Botrytis cinerea (Betry) and 7-10 days for Pseudocercosporella herpotrichoides (Pseudo). Each colony diameter is measured and compared with the untreated control and the percent inhibition is calculated as follows: [formula] Each test includes a solvent blank consisting of the formulation without a test compound in addition to the untreated control.
(§2) Assay fungi include the plant pathogens, Pythium ultimum (Pyth) and Rhizoctonia solani (Rhiz).
(§3) When more than one test is run the data are averaged.

Plasmopara viticola = assay: In vivo fungicidal activity, Grape Downy Mildew (GDM); conditions: rate 400 ppm, rating, averaged
Method: (§4) Test compounds are dissolved in acetone and diluted with deionized water containing about 0.05% TWEEN 20®, a polyoxyethylene sorbitan monolaurate surfactant manufactured by Atlas Chemical Industries, to give a concentration of 400 ppm. Subsequent dilutions are made with an 0.05% aqueous solution of TWEEN 20®.
(§5) Host plants are sprayed with test solution, dried and inoculated with fungi. When disease symptom development is optimal, the plants are rated for disease control according to the rating scale shown below. Each test contains inoculated treated plants, inoculated untreated plants and a reference standard.
(§6) When more than one test is run, the data are averaged.

[2] = test system: Erysiphe graminis, tritici; assay: In vivo fungicidal activity, Wheat Powdery Mildew (WPM); conditions: rate 400 ppm, rating, averaged
Method: as §4, §5, §6

Venturia inaequalis = assay: In vivo fungicidal activity, Apple Scab (AS); conditions: rate 400 ppm, host plants sprayed then inoculated, rating, averaged
Method: as §4, §5, §6

[3] = test system: Puccinia recondita, tritici; assay: In vivo fungicidal activity, Wheat Leaf Rust (WLR); conditions: rate 400 ppm, rating, averaged
Method: as §4, §5, §6

Rhizoctonia solani = assay: In vitro fungicidal activity, mycelial growth inhibition on agar (Rhiz); assay type: cell-based; conditions: 48 h, two days
Method: as §1, §2, §3

Cercospora beticola = assay: In vivo fungicidal activity, Sugarbeet Cercospora (SBC); conditions: rating, averaged
Method: as §4, §5, §6

[4] = test system: Heliothis virescens, egg, tobacco budworm; assay: Tobacco budworm egg test, dipped cotton leaf and eggs; assay type: in vivo; parameters: key: 0: no effect; 10-25% kill; 26-35% kill; 36-45% kill; 46-55% kill; 56-65% kill; 66-75% kill; 76-85% kill; 86-99% kill; 9: 100% kill; conditions: 1000 ppm; mortality rating after 3 days
Summary of the method: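 Scoring is by mortality counts after 3 days, graded on a rating scale. Tobacco budworm eggs (6-30 h old) on cheesecloth and a young cotton leaf were each dipped about 3 s in the test suspension. Suspensions were made from a 10,000 ppm stock in 35% acetone/water with further water dilutions.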

[5] = test system: Heliothis virescens, 3rd instar tobacco budworm; assay: Tobacco budworm 3rd instar test, dipped cotton cotyledons; assay type: in vivo; parameters: key: 0: no effect; 10-25% kill; 26-35% kill; 36-45% kill; 46-55% kill; 56-65% kill; 66-75% kill; 76-85% kill; 86-99% kill; 9: 100% kill; conditions: mortality rating after 3 days
Summary of the method: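 Rating-scale scores of mortality and reduced feeding, taken 3 days after single third-instar larvae were caged on dried cotton cotyledon quarters. Cotyledons were pre-dipped in test solutions diluted with water from a 10,000 ppm stock in 35% acetone.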

[6] = test system: Diabrotic undecimpunctata howardi, 3rd instar southern corn rootworm; assay: Southern corn rootworm soil test; assay type: in vivo; parameters: key: 0: no effect; 10-25% kill; 26-35% kill; 36-45% kill; 46-55% kill; 56-65% kill; 66-75% kill; 76-85% kill; 86-99% kill; 9: 100% kill; conditions: 50 (ppm as headed), mortality rating after 6 days
Summary of the method: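 Soil test with ten 3rd instar larvae per jar, mortality read after 6 days and missing larvae counted as dead; scores on a rating scale. Doses were 1.25 and 0.25 mg a.i. per jar, corresponding to roughly 50 and 10 kg/ha, loaded on talc from acetone and mixed into moist soil with millet seed as food.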

## N#Cc1c(Br)c(Br)n(CSc2ccccc2)c1-c1ccc(C(F)(F)F)cc1 [Example 45, 4,5-dibromo-1-[(phenylthio)methyl]-2-(alpha, alpha,alpha-trifluoro-p-tolyl)pyrrole-3-carbonitrile]
[1]; rating at 3 days
  ARMYWORM Day 3 R: 0
[1]; rating at 5 days
  ARMYWORM Day 5 R: 0
Pythium ultimum; rate 1 ppm in agar
  inhibition at 1 ppm: 0%
Pythium ultimum; rate 10 ppm in agar
  inhibition at 10 ppm: 7%
Pythium ultimum; rate 25 ppm in agar
  inhibition at 25 ppm: 4.5%
Plasmopara viticola
  Disease Control GDM: 0 (0)
[2]
  Disease Control WPM: 1.0
Venturia inaequalis
  Disease Control AS: 0 (0)
[3]
  Disease Control WLR: 6.0
Rhizoctonia solani; rate 1 ppm in agar
  inhibition at 1 ppm: 0%
Rhizoctonia solani; rate 10 ppm in agar
  inhibition at 10 ppm: 3.5%
Rhizoctonia solani; rate 25 ppm in agar
  inhibition at 25 ppm: 2%
Cercospora beticola; rate 25 ppm
  Disease Control SBC: 6.0
Cercospora beticola; rate 100 ppm
  Disease Control SBC: 7.0
Cercospora beticola; rate 400 ppm
  Disease Control SBC: 7.5
[4]
  TOBACCO BUDWORM Egg: 0
[5]; 100 ppm
  TOBACCO BUDWORM 3rd Instar: 0
[5]; 1000 ppm
  TOBACCO BUDWORM 3rd Instar: 0
[6]
  SOUTHERN CORN ROOTWORM: 0

Reference: patent EP0545103A1, “Insecticidal, acaricidal and molluscicidal 1-(substituted) thioalkylpyrroles” (priority 1991, dated 1993)
